Data from publication PMC10892423 (Pharmaceutics, 2024).
Converted amounts (≈) assume the structure as drawn.

How the values were obtained:
[1] = target: T1, NDM-1 (Klebsiella pneumoniae, UniProt C7C422); assay: β-lactamase inhibition, imipenem hydrolysis; type: biochemical; settings: imipenem substrate; read-out: β-Lactamases, IC50 NDM-1
T1 construct: purchased RayBiotech, Inc. 230-00554
Excerpt: (§1) Recombinant AmpC from Escherichia coli was produced according to a previously reported protocol. KPC-2 and NDM-1 […] were purchased from LifeSpan Biosciences, Inc. (Lynnwood, WA, USA) (LS-G26598) and RayBiotech, Inc. (Peachtree Corners, GA, USA) (230-00554), respectively. Genes encoding OXA-48 (residues 23–265) and VIM-2 (residues 27–266) were custom-synthesized (Bioneer Inc., Seoul, Republic of Korea) and expressed as previously described. The β-lactamase inhibitory activity of the title compounds was then determined according to the previously reported methods. Briefly, equal volumes (100 μL) of the title compounds (70–0.1 μM in PBS) and diluted enzyme stock were mixed (final concentration 2% of DMSO in 200 μL) in 96-well plates, which were then incubated at 37 °C for 20 min. The incubated mixture was added to each well containing substrates (nitrocefin for AmpC, KPC-2, OXA-48, and VIM-2; and imipenem for NDM-1) of final concentrations of 70 μM for nitrocefin and 100 μM for imipenem. Substrate hydrolysis was monitored at 486 nm (nitrocefin) or 300 nm (imipenem) for 15 min, using a Cytation 5 imaging multimode reader (BioTek Instruments Inc., Winooski, VT, USA). At the plateau level of hydrolysis, the corresponding rates of hydrolysis were compared to those obtained without inhibitors (100%) to determine the percentage of enzyme inhibition at each concentration of the title compounds. The IC50 values of the compounds were derived from sigmoidal dose–response curves, using GraphPad Prism 5 (GraphPad Software, Boston, MA, USA).

[2] = target: T2, AmpC (Escherichia coli, UniProt P00811); assay: β-lactamase inhibition, nitrocefin hydrolysis; type: biochemical
T2 construct: made in house
T2 sequence (P00811 20-377): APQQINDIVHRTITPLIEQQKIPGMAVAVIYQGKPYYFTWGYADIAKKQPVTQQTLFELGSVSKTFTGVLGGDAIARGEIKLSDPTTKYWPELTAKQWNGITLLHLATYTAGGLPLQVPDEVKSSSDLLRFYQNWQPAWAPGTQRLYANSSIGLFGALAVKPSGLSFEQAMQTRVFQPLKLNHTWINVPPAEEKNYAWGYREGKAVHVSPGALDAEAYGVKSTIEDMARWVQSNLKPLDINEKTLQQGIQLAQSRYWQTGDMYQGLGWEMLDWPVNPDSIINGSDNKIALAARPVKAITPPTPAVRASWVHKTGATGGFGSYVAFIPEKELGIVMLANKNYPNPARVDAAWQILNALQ
Excerpt: as §1

[3] = target: T3, KPC-2 (Klebsiella pneumoniae, UniProt Q9F663); assay: β-lactamase inhibition, nitrocefin hydrolysis; type: biochemical; settings: nitrocefin substrate; read-out: β-Lactamases, IC50 KPC-2
T3 construct: purchased LifeSpan Biosciences, Inc. LS-G26598
T3 sequence (Q9F663 25-293, looked up): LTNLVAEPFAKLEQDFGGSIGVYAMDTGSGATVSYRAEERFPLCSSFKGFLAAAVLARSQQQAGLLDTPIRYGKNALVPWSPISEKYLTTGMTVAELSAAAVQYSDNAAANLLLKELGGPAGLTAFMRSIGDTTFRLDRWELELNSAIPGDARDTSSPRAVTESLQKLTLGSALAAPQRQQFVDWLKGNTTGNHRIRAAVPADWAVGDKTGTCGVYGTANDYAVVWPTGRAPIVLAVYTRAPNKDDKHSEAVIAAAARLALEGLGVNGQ
Excerpt: as §1

[4] = target: T4, OXA-48 (Klebsiella pneumoniae, UniProt Q6XEC0); assay: β-lactamase inhibition, nitrocefin hydrolysis; type: biochemical; settings: nitrocefin substrate; read-out: β-Lactamases, IC50 OXA-48
T4 construct: Genes encoding OXA-48 (residues 23–265) and VIM-2 (residues 27–266) were custom-synthesized; made in house
T4 sequence (Q6XEC0 23-265 limits assumed): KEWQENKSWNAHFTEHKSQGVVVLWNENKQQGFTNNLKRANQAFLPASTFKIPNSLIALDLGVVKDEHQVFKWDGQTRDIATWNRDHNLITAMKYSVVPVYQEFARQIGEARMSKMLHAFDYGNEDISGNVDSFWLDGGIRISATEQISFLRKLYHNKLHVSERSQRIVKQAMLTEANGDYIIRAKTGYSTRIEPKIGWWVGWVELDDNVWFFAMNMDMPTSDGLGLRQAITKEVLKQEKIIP
Excerpt: as §1

[5] = target: T5, VIM-2 (Escherichia coli, UniProt Q5U7L7); assay: β-lactamase inhibition, nitrocefin hydrolysis; type: biochemical; settings: nitrocefin substrate; read-out: β-Lactamases, IC50 VIM-2
T5 construct: Genes encoding OXA-48 (residues 23–265) and VIM-2 (residues 27–266) were custom-synthesized; made in house
Excerpt: as §1

[6] = test system: MBL-producing P. aeruginosa clinical isolates; assay: MIC by broth microdilution (CLSI); type: cell-based, Pseudomonas aeruginosa; settings: Pseudomonas aeruginosa
Description: The DMSO stock solutions of the test compounds were serially diluted to the desired concentrations in CAMHB. Then, 10 μL of the bacterial suspension (5 × 10^5 colony forming units (CFU)/mL) was combined with 200 μL of DMSO stock solutions of the test compounds in 96-well microtiter plates (1% DMSO, final). After the incubation of the plate at 37 °C for 24 h, bacterial growth was visibly evaluated by monitoring the turbidity of the resulting suspension, and the MICs were determined as the lowest concentrations of the test compounds that inhibited the visible growth of the bacteria.

T1 sequence (C7C422 29-270, looked up, species assumed): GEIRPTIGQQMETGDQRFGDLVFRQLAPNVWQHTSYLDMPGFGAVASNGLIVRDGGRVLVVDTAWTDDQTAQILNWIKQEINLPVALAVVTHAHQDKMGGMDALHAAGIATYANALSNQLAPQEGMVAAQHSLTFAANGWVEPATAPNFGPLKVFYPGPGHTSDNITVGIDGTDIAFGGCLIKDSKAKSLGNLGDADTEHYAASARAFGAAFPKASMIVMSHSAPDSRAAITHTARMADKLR

In the case of `O=c1c(OCCC(F)(F)F)c(-c2ccc(F)c(F)c2)oc2cc(O)cc(O)c12` [Compound 22], the IC50 [1] is reported as greater than 50 µM, the IC50 [2] is reported as greater than 50 µM and the IC50 [3] is reported as greater than 50 µM. The IC50 [4] was 39.8 µM and the IC50 [5] was greater than 100 µM.
With `CC(C)c1ccc(COc2c(-c3ccc(F)c(F)c3)oc3cc(O)cc(O)c3c2=O)cc1` [Compound 7] the IC50 [1] was 16.7 µM, the IC50 [2] was greater than 50 µM and the IC50 [3] was 21.5 µM. It also gave an IC50 [4] of 6 µM and an IC50 [5] of 13.1 µM.
Work on `CC(C)(C)C(=O)OCOc1c(-c2ccc(F)c(F)c2)oc2cc(O)cc(O)c2c1=O` [Compound 4] yielded an IC50 [1] of 15.7 µM, an IC50 [2] of 25.4 µM and an IC50 [3] of 33.2 µM. It also gave an IC50 [4] of 28.7 µM and an IC50 [5] of 19.3 µM.
Molecule `O=c1c(OCCC2CCNCC2)c(-c2ccc(F)c(F)c2)oc2cc(O)cc(O)c12` [Compound 31] has an IC50 [1] greater than 50 µM, an IC50 [2] greater than 50 µM and an IC50 [3] greater than 50 µM. The IC50 [4] was greater than 100 µM and the IC50 [5] was greater than 100 µM.
`CC(C)OC(=O)OCOc1c(-c2ccc(F)c(F)c2)oc2cc(O)cc(O)c2c1=O` [Compound 5] gave an IC50 [1] greater than 50 µM, an IC50 [2] greater than 50 µM and an IC50 [3] greater than 50 µM. For the same molecule, the IC50 [4] was 42.7 µM and the IC50 [5] was greater than 100 µM.
Work on `O=c1c(OCCOCCO)c(-c2ccc(F)c(F)c2)oc2cc(O)cc(O)c12` [Compound 9] yielded an IC50 [1] greater than 50 µM, an IC50 [2] greater than 50 µM and an IC50 [3] greater than 50 µM. It also gave an IC50 [4] greater than 100 µM and an IC50 [5] greater than 100 µM.
With `NCCOCCOc1c(-c2ccc(F)c(F)c2)oc2cc(O)cc(O)c2c1=O` [Compound 11] the IC50 [1] was greater than 50 µM, the IC50 [2] was greater than 50 µM and the IC50 [3] was greater than 50 µM. The IC50 [4] was greater than 100 µM and the IC50 [5] was greater than 100 µM.
`CO/N=C(\C(=O)N[C@@H]1C(=O)N2C(C(=O)[O-])=C(C[N+]3(C)CCCC3)CS[C@H]12)c1csc(N)n1` [FEP, cefepime] was tested, and the MIC ([6]; PA-001, blaNDM) was greater than 16 µg/mL, the MIC ([6]; PA-002, blaIMP) was greater than 16 µg/mL and the MIC ([6]; PA-007, blaNDM) was 16 µg/mL (≈ 33.3 µM). It also gave an MIC ([6]; PA-008, blaNDM) greater than 16 µg/mL, an MIC ([6]; PA-011, blaNDM) greater than 16 µg/mL and an MIC ([6]; PA-012, blaNDM) greater than 16 µg/mL. It also gave an MIC ([6]; PA-016, blaIMP) greater than 16 µg/mL, an MIC ([6]; PA-017, blaNDM) greater than 16 µg/mL and an MIC ([6]; PA-019, blaNDM) greater than 16 µg/mL. It also gave an MIC ([6]; PA-020, blaNDM) of 16 µg/mL (≈ 33.3 µM), an MIC ([6]; PA-023, blaNDM) greater than 16 µg/mL and an MIC ([6]; PA-025, blaNDM) greater than 16 µg/mL. For the same molecule, the MIC ([6]; PA-027, blaIMP) was greater than 16 µg/mL, the MIC ([6]; PA-028, blaNDM) was greater than 16 µg/mL and the MIC ([6]; PA-029, blaIMP) was greater than 16 µg/mL. It also gave an MIC ([6]; PA-030, blaIMP) greater than 16 µg/mL, an MIC ([6]; PA-034, blaNDM) greater than 16 µg/mL and an MIC ([6]; PA-036, blaNDM) greater than 16 µg/mL. For the same molecule, the MIC ([6]; PA-038, blaNDM) was greater than 16 µg/mL, the MIC ([6]; PA-039, blaNDM) was greater than 16 µg/mL and the MIC ([6]; PA-044, blaNDM) was greater than 16 µg/mL.
With `O=c1c(OCCC2CCOCC2)c(-c2ccc(F)c(F)c2)oc2cc(O)cc(O)c12` [Compound 30] the IC50 [1] was greater than 50 µM, the IC50 [2] was greater than 50 µM and the IC50 [3] was greater than 50 µM. For the same molecule, the IC50 [4] was 35.9 µM and the IC50 [5] was greater than 100 µM.
